Laboratory results reported in a melting point compilation (Tetko et al.).
Peptide text beside a SMILES is read from it.

Compound | melting point
O=C(O)c1cc(I)ccc1F | 163 °C
COCCOC(=O)c1ccccc1C(=O)OCCOC | -45 °C
C1CCC2(CC1)OCC(C1OC3(CCCCC3)OC1C1COC3(CCCCC3)O1)O2 (stereo not drawn) | 82 to 84 °C
NC(=O)C[C@H](NC(=O)OCc1ccccc1)C(=O)O | 160 to 165 °C
Nc1snnc1-c1ccccc1 | 144 to 147 °C
NC(=S)c1ccc2nonc2c1 | 132 to 135 °C
CCCCCCCCC(=O)OC1CCC2(C)C(=CCC3C2CCC2(C)C(C(C)CCCC(C)C)CCC32)C1 (stereo not drawn) | 74 to 77 °C
C=CC(C)(CCC=C(C)C)OC(C)=O (stereo not drawn) | < 25 °C
CCOC(=O)c1cnc(C(F)(F)F)nc1Cl | 36 to 37 °C
NS(=O)(=O)c1ccc(SCCCO)c(F)c1 | 110 °C
CC1=NNC(=O)C1=Cc1c(O)c2cccc(C)c2[nH]c1=O | 242 °C
CCCCCCCCCCCCCCCC(OC)OC | 10 °C
COc1cc2c(c3oc(=O)c4c(c13)CCOC4=O)C1CCOC1O2 (stereo not drawn) | 237 to 240 °C
COc1cc(C2Nn3c(nnc3-c3ccc([N+](=O)[O-])cc3)S2)ccc1O (stereo not drawn) | 226 °C
Cc1ccc2[nH]c3ccccc3c2c1 | 208 °C
CSC(=NS(=O)(=O)c1ccc(Br)cc1)SC | 100 to 105 °C
CN1C(=O)C(=NNc2cccc(Cl)c2)C(=O)N(C)C1=O | 202 °C
CC(C)(C)OC(=O)NC(C)(C)C(=O)O | 117 to 121 °C
CC[C@H](C)[C@H](NC(=O)CN)C(=O)O (H-Gly-Ile-OH) | 248 °C
Cc1ccc(S(=O)(=O)N[C@H](c2ccccc2)[C@H](NS(=O)(=O)c2ccc(C)cc2)c2ccccc2)cc1 | 203 to 208 °C
O=C(OC(=O)c1ccc(C(F)(F)F)cc1)c1ccc(C(F)(F)F)cc1 | 130 °C
Cc1nc(-c2ccc(CO)cc2)no1 | 131 to 132 °C

Compound | melting point
O=C(Oc1cccc(N=[N+]([O-])c2cccc(OC(=O)c3ccccc3)c2)c1)c1ccccc1 | 175 °C
Cc1ccc(Cl)cc1NC(N)=S | 160 to 161 °C
O=C(Cl)c1ccc(I)cc1 | 63 °C
COc1ccc(Cc2cnc(N)nc2N)cc1OC | 233 °C
NNC(=O)c1cccs1 | 139 °C
CCOc1cc(Cl)c(N)c(Cl)c1 | 46 °C
CC(CC(C)(C)C1CCCCC1)C1CCCCC1 (stereo not drawn) | -30 °C
NC(c1ccccc1)(c1ccccc1)c1ccccc1 | 102 °C
O=C1Nc2ccc(I)cc2C1=O | 285 °C
CCCCOC(=O)c1ccccc1C(=O)OCc1ccccc1 | 230 °C
O=Cc1cc(C=O)c(O)c(C=O)c1 | 179 to 180 °C
O=Cc1ccc(Cn2cncn2)cc1 | 73 to 75 °C
Cc1cc(OC(=O)N(C)C)nn1C(=O)N(C)C | 69.5 °C
CCOc1cccc(-c2ccccc2)c1 | 35 °C
COc1ccc(-c2cc(-c3ccc(OC)cc3)cc(-c3ccc(OC)cc3)c2)cc1 | 143 to 146 °C
CC12CCC(C(=CCC=C3C(=O)C4(C)CCC3C4(C)C)C1=O)C2(C)C | 265 to 267 °C
CC(=O)Nc1c(I)c(NC(C)=O)c(I)c(C(=O)O)c1I | 300 °C
CCOP(=S)(OCC)SC1OCCOC1SP(=S)(OCC)OCC (stereo not drawn) | -2 °C
CC(C)(C(N)=O)n1nc2ccccc2n1 | 174 °C
O=C(OCCOc1cc(OCCOC(=O)c2ccccc2)c([N+](=O)[O-])cc1[N+](=O)[O-])c1ccccc1 | 165 °C
O=S(=O)(Cl)Cc1ccccc1Br | 78 to 80 °C
Nc1c(F)ccc(F)c1Cl | 29 °C

Compound | melting point
Cc1nc(-c2ccc(S(=O)(=O)Cl)cc2)cs1 | 111 to 112 °C
CC(C(=O)Nc1ccc(F)c(Cl)c1)(C(F)(F)F)C(F)(F)F | 72 °C
CCCCC#Cc1cncc(C(=O)NN)c1 | 158 to 161 °C
CC(CCC(=O)O)C1CCC2C3C(=O)CC4CC(C(=O)O)CCC4(C)C3CC(C(=O)O)C12C (stereo not drawn) | 207 to 209 °C
Cc1c(I)ccnc1Cl | 107 °C
CC(=O)Nc1ccc(C#N)c(C(F)(F)F)c1 | 170 to 173 °C
COC(=O)c1nc[nH]c1C(=O)OC | 197 to 201 °C
NC(=S)c1ccc(-c2ccccn2)s1 | 198 to 200 °C
Nc1cc(Cl)cc(Cl)c1O | 97 °C
Cc1cnc2c(C(=O)O)c(Cl)ccc2c1 | 253 °C
C=CCCCCCCCCC | -49.2 °C
CC(=O)N=C1C=CC(=O)C=C1 | 74.5 °C
COC(=O)CC(CC(=O)OC)(c1cc(C)c(O)c(C)c1)c1cc(C)c(O)c(C)c1 | 199 °C
CN(c1c(F)c(F)c(C#N)c(F)c1F)N(O)O | 53 °C
COC1OC(CNC(=O)N(CCCl)N=O)C(O)C(O)C1O (stereo not drawn) | 111 °C
CC(=O)c1cc2c(cc1N)OCO2 | 168 to 171 °C
CCOC(=O)C(=O)C=CN(C)C | 38 °C
Cc1ccc(S(=O)(=O)n2cc(C=CC(=O)O)c3ccccc32)cc1 | 238 to 241 °C
OC(CCl)C(O)CCl (stereo not drawn) | 126 °C
COc1ccc(N/N=C(/C(=O)c2cccc3ccccc23)S(=O)(=O)c2ccccc2)cc1 | 118 °C
C=CC(=O)N1CCN(C(=O)C=C)CC1 | 93 °C
CSc1ccc(C(=O)O)s1 | 103 to 105 °C

Compound | melting point
O=C(O)C=Cc1ccc(Cl)cc1Cl | 245 to 248 °C
CCOC(=O)C1(c2cccc(O)c2)CCN(C)CC1 | 110 °C
ON=C(Cl)c1c(Cl)cccc1Cl | 85 to 89 °C
N#CCc1ccc(Cl)cc1Cl | 60 to 63 °C
N#CC(OC1OC(COC2OC(CO)C(O)C(O)C2O)C(O)C(O)C1O)c1ccccc1 (stereo not drawn) | 224 °C
COC=C(C(=O)OC)c1ccccc1Oc1cc(Oc2ccccc2C#N)ncn1 | 116 °C
CCCCCC=CCC=CCC=CCC=CCCCC(=O)O | -49.5 °C
CC(C)c1ccccc1Br | -59 °C
CCCCCOC(=O)CCCC | -78.8 °C
CC(=O)CCc1cc2c(cc1N=Nc1ccccc1C(=O)O)CCC(C)N2 (stereo not drawn) | 157 °C
Cc1c([N+](=O)[O-])cc2c(c1[N+](=O)[O-])C(C)(C)CC2(C)C | 132 °C
O=C(O)c1c(F)c(F)c(F)c(F)c1C(=O)O | 163 °C
O=[N+]([O-])c1ccc(/C=C/c2ccc3c(c2)OCO3)c([N+](=O)[O-])c1 | 178 to 179 °C
C=CCc1cc(C=O)c(O)c(OC)c1 | 48 to 52 °C
COC(=O)c1ccccc1SCC(C)=O | 60 to 61 °C
CCCCN(CCCC)C(C(N)=O)c1ccc(OC)cc1 (stereo not drawn) | 134 °C
N#Cc1ccc(F)c([N+](=O)[O-])c1 | 92 °C
N#Cc1ccc2c(c1)N(CCCN1CCC(O)CC1)c1ccccc1S2 | 116 °C
Cc1oc(-c2ccccc2)nc1C=O | 87 to 88 °C

Next, values leading:

melting point | Compound
231 to 232 °C | O=C(O)c1ccc(-c2ccco2)cc1
136 °C | CC(=O)c1c(C)c([N+](=O)[O-])c(C(C)(C)C)c([N+](=O)[O-])c1C
156 °C | CC(C)(C)c1ccc(C2CCC3(CC2)Cc2ccc(O)cc2C3)cc1 (stereo not drawn)
116 to 118 °C | COc1ccccc1C1CCN(c2ccc(C=O)cc2[N+](=O)[O-])CC1
48 to 51 °C | O=S(=O)(Cl)c1ccc2c(c1)OCO2
106 °C | Cc1cc(CCN2CCN(c3cccc(Cl)c3)CC2)n[nH]1
-8 °C | c1ccnnc1
75 to 76 °C | CCOC(=O)/C(=N\Nc1ccc(Cl)cc1)C(=O)C(F)(F)F
60 to 75 °C | CCCCC(C=O)NC(=O)C(CC(C)C)NC(=O)OCc1ccccc1 (stereo not drawn)
102 to 107 °C | CC(=O)NC1C(OCc2ccccc2)OC(COC(c2ccccc2)(c2ccccc2)c2ccccc2)C(O)C1O (stereo not drawn)
37 °C | OCCCc1ccncc1
217 to 219 °C | CC(=O)Nc1nn(C(C)=O)c2ncccc12
-6 °C | CC(C)(C)OC(=O)CC(=O)OC(C)(C)C
104 to 105 °C | Nc1ccc(-n2cnc(Cl)c2Cl)cc1
-45 °C | COc1ccc(F)cc1
155 to 157 °C | COC(=O)c1ccccc1C(=O)c1cc(C)c(O)c(C)c1
160 to 161 °C | C/C(CCc1oc2ccc([N+](=O)[O-])cc2c1-c1ccc(C)o1)=N/O
130 °C | Cc1cc(C)c(Cc2c(C)cc(C)cc2C)c(C)c1
120 to 125 °C | CC(C)(C)OC(=O)N[C@H](CC#N)Cc1ccccc1

melting point | Compound
157 to 160 °C | O=C1CC2C(Cl)CC1C2C(=O)O (stereo not drawn)
219 to 223 °C | O=C(O)C=Cc1ccc(Br)cc1F
95 to 96 °C | FC(F)(F)c1cccc(-c2noc(-c3cc(-c4ccccc4)c(C(F)(F)F)s3)n2)c1
262 °C | Cn1c(=O)c(C2=NNC(=O)C2=NNc2ccc(I)cc2)c(O)c2ccccc21
284 to 287 °C | COc1cccc2c(O)c3ccccc3nc12
77 to 79 °C | COCc1nnc(S)s1
17.5 °C | CCOC(=O)C=CN(C)C
142 to 143 °C | O=C1OC(c2ccccc2)=NC1=Cc1ccc(-c2ccccc2)o1
45 °C | CC(CN(C)C)CN1c2ccccc2CCc2ccccc21 (stereo not drawn)
113 °C | Cc1cccc2c(O)c(C=C3C(=O)N(c4ccccc4)N=C3c3ccccc3)c(=O)[nH]c12
171 to 175 °C | c1ccc([C@@H]2COC(c3cccc(C4=N[C@H](c5ccccc5)CO4)n3)=N2)cc1
42 to 44 °C | CC(C)CC(C)(O)C#CC(C)(O)CC(C)C (stereo not drawn)
224 to 233 °C | CC(=O)OCC1OC(n2cnc3c(=O)[nH]c(N)nc32)C(OC(C)=O)C1OC(C)=O (stereo not drawn)
234 to 238 °C | CC(C)CC(C)(N)P(=O)(O)O (stereo not drawn)
88 to 89 °C | COC(=O)c1cc2ccccc2cn1
47.5 °C | CC#CCOS(=O)(=O)c1ccc(C)cc1
220 to 224 °C | CO[C@@H](C)[C@H](N)C(=O)O
117 °C | C(=NC(N=Cc1ccco1)c1ccco1)c1ccco1 (stereo not drawn)
91 °C | CN(CC(=O)O)C(=O)OC(C)(C)C
